Data reported in ChEMBL document CHEMBL4414576, “Recent advancements in mechanistic studies and structure activity relationship of FoF1 ATP synthase inhibitor as antimicrobial agent” (Eur J Med Chem, 2019).
In brackets after ≈: the same amount, converted by molar mass.

Experiments:
Staphylococcus aureus = test: Antimicrobial activity against Staphylococcus aureus ATCC 29213; format: functional
Streptococcus pneumoniae = test: Antimicrobial activity against Streptococcus pneumoniae ATCC 49619; format: functional
[1] = Inhibition of ATP synthase isolates from rat brain cells using succinate as substrate preincubated for 5 mins followed by substrate addition
ATP synthase = test: Inhibition of ATP synthase in Mycobacterium tuberculosis H37Rv; format: protein-complex assay
[2] = test system: Mycobacterium tuberculosis; test: Antimicrobial activity against Mycobacterium tuberculosis H37Rv after 5 days; format: functional
Escherichia coli [3] = test: Inhibition of F1F0-ATP synthase in Escherichia coli relative to control; parameters: concentration or dose not given beside the values; conditions: concentration not given here
Escherichia coli [4] = test: Inhibition of ATP synthase in Escherichia coli relative to control; conditions: concentration not given here
[5] = Inhibition of ATP synthase in Escherichia coli
[6] = Inhibition of F1F0-ATP synthase in Escherichia coli
Escherichia coli [7] = test: Inhibition of F1F0-ATP synthase in Escherichia coli after 60 mins relative to control; parameters: concentration or dose not given beside the values
[8] = Inhibition of F1F0-ATP synthase in Escherichia coli after 60 mins
[9] = test system: Mycobacterium tuberculosis H37Rv; test: Inhibition of F0F1-ATP synthase in Mycobacterium tuberculosis H37Rv at […] using succinate as substrate preincubated for 10 mins followed by substrate addition by luciferase reporter gene assay relative to control
[10] = test system: Mycobacterium tuberculosis; test: Antimicrobial activity against Mycobacterium tuberculosis H37Rv; format: functional, organism-based
[11] = Selectivity index, ratio of CC50 for African green monkey Vero cells to IC50 of Mycobacterium tuberculosis H37Rv; format: toxicity; conditions: read-out: Ratio IC50
Mus musculus = organism: Mus musculus; test: Inhibition of mitochondrial ATP synthase isolated from Swiss albino mouse liver at 100 uM using succinate as substrate after 1 hr relative to control
[12] = molecular target: ATP synthase (Mycobacterium tuberculosis) (UniProt P9WPU9+P9WPU5+P9WPU7+P9WPV5+P9WPS1+P9WPV1+P9WPV7+P9WPV3); test: Inhibition of ATP synthase in Mycobacterium tuberculosis H37Rv whole cell lysate after 18 hrs at 5X of MIC relative to control; format: subcellular
[13] = Selectivity index, ratio of CC50 for human HepG2 cells to MIC of Mycobacterium tuberculosis H37Rv; format: toxicity
[14] = Inhibition of ATP synthase in Mycobacterium smegmatis; parameters: species or system Mycolicibacterium smegmatis
[15] = Selectivity index, ratio of IC50 for ATP synthase in Mycobacterium tuberculosis H37Rv to IC50 for mitochondrial ATP synthase isolated from swiss albino mouse liver

## COc1nc2ccc(Br)cc2cc1[C@H](c1ccccc1)[C@](O)(CCCCN1CCN(C)CC1)CCc1ccccc1
Staphylococcus aureus
  MIC: 1 µg/mL (≈ 1.62 µM)
Streptococcus pneumoniae
  MIC: 0.25 µg/mL (≈ 0.405 µM)

## O=C(O[C@@H]1Cc2c(O)cc(O)cc2O[C@@H]1c1cc(O)c(O)c(O)c1)c1cc(O)c(O)c(O)c1 [EPIGALOCATECHIN GALLATE]
[1]
  IC50: 17 µM

## CCN(CC)Cc1cc(N(c2cc(C)nc3cc(Cl)ccc23)S(=O)(=O)c2ccc(Cl)s2)ccc1O
ATP synthase
  IC50: 0.36 to 1.83 µM
[2]
  MIC: 6.25 µg/mL (≈ 11.4 µM)

## Oc1ccc(O)cc1
Escherichia coli [3]
  inhibition: 80%

## Oc1ccc(/C=C/c2cc(O)cc(O)c2)cc1 [RESVERATROL]
[1]
  IC50: 19 µM
Escherichia coli [4]
  inhibition: 40%
[5]
  IC50: 94 µM

## Oc1ccc(/N=C/c2ccccc2O)cc1
[6]
  IC50: 5 µM
Escherichia coli [3]
  inhibition: 100%

## O=c1c(-c2ccc(O)cc2)coc2cc(O)cc(O)c12
Escherichia coli [7]
  inhibition: 40 to 60%

## SILYMARIN
[8]
  IC50: 110 µM

## COc1ccccc1N1CCN(CC(O)COC(c2ccccc2)c2cccc3ccccc23)CC1 (stereo not given)
[9]
  inhibition: 90%

## O=C(CNC1CCCC1)N(c1ccccc1)c1ccccc1
[10]
  IC50: 10.4 µM
[11]
  selectivity ratio: 24

## NNC(=O)c1ccncc1
[9]
  inhibition: 99%

## O=c1cc(-c2ccccc2)oc2cc(O)c(O)c(O)c12 [BAICALEIN]
Escherichia coli [7]
  inhibition: 100%
[8]
  IC50: 290 µM

## CCN(CC)Cc1cc(N(c2cc(C)nc3cc(Cl)ccc23)S(=O)(=O)c2cccc(Cl)c2Cl)ccc1O
ATP synthase
  IC50: 0.36 to 1.83 µM
[2]
  MIC: 3.12 µg/mL (≈ 5.39 µM)

## Oc1cccc(/C=N/c2cccc(O)c2)c1
[6]
  IC50: 2.25 µM
Escherichia coli [3]
  inhibition: 100%

## Oc1cccc(/N=C/c2ccccc2O)c1
[6]
  IC50: 5.25 µM
Escherichia coli [3]
  inhibition: 85%

## NC12CC3CC(CC(C3)C1)C2 [AMANTADINE]
Escherichia coli [7]
  inhibition: 100%
[8]
  IC50: 2500 µM

## Oc1ccccc1O
Escherichia coli [3]
  inhibition: 40%

## COc1nc2ccc(Br)cc2cc1[C@H](c1ccccc1)[C@](O)(CCCCN(C)C)CCc1ccccc1
Staphylococcus aureus
  MIC: 2 µg/mL (≈ 3.56 µM)
Streptococcus pneumoniae
  MIC: 0.25 µg/mL (≈ 0.445 µM)

## O=c1cc(-c2ccccc2)oc2cc(O)cc(O)c12
Escherichia coli [7]
  inhibition: 40 to 60%

## Oc1cc2cc3ccccc3cc2c(O)c1O
Escherichia coli [3]
  inhibition: 30%

## O=c1c(O[C@@H]2O[C@H](CO)[C@@H](O)[C@H](O)[C@H]2O)c(-c2ccc(O)c(O)c2)oc2cc(O)cc(O)c12 [ISOQUERCETIN]
Escherichia coli [4]
  inhibition: 40%
[5]
  IC50: 71 µM

## Oc1cc(O)cc(/C=C/c2ccc(O)c(O)c2)c1 [PICEATANNOL]
[1]
  IC50: 8 µM
Escherichia coli [4]
  inhibition: 100%
[5]
  IC50: 14 µM

## Oc1ccc(/C=N/c2cccc(O)c2)cc1
[6]
  IC50: 9 µM
Escherichia coli [3]
  inhibition: 100%

## Oc1cc2cc3ccccc3cc2cc1O
Escherichia coli [3]
  inhibition: 22%

## Oc1ccccc1/C=N/c1ccccc1O
[6]
  IC50: 7 µM
Escherichia coli [3]
  inhibition: 95%

## OC(COC(c1ccccc1)c1cccc2ccccc12)CN1CCN(C(c2ccccc2)c2ccccc2)CC1 (stereo not given)
[9]
  inhibition: 98%

## O=c1c(O)c(-c2ccccc2)oc2cc(O)cc(O)c12
Escherichia coli [7]
  inhibition: 0 to 20%

## Oc1cccc(O)c1
Escherichia coli [3]
  inhibition: 20%

## O=c1c(O)c(-c2ccc(O)cc2)oc2cc(O)cc(O)c12
Escherichia coli [7]
  inhibition: 40 to 60%

## O=[N+]([O-])c1cc(O)ccc1/N=C/c1ccccc1O
[6]
  IC50: 6 µM
Escherichia coli [3]
  inhibition: 100%

## Oc1cc(O)c2c(c1)OC(c1ccc(O)c(O)c1)C(O)C2 (stereo not given) [CATECHIN]
Escherichia coli [7]
  inhibition: 100%
[8]
  IC50: 4000 µM

## Oc1cccc(/C=N/c2ccccc2O)c1
[6]
  IC50: 9 µM
Escherichia coli [3]
  inhibition: 85%

## O=c1cc(-c2ccc(O)cc2)oc2cc(O)cc(O)c12
Escherichia coli [7]
  inhibition: 40 to 60%

## COc1cc(/C=C/C(=O)CC(=O)/C=C/c2ccc(O)c(OC)c2)ccc1O [CURCUMIN]
[1]
  IC50: 45 µM

## O=[N+]([O-])c1ccc(/N=C/c2ccccc2O)c(O)c1
[6]
  IC50: 5 µM
Escherichia coli [3]
  inhibition: 100%

## COc1ccc(-c2cc(=O)c3c(O)cc(O[C@@H]4O[C@H](CO[C@@H]5O[C@@H](C)[C@H](O)[C@@H](O)[C@H]5O)[C@@H](O)[C@H](O)[C@H]4O)cc3o2)cc1O
Escherichia coli [7]
  inhibition: 40 to 60%

## O=c1c(O)c(-c2ccc(O)c(O)c2)oc2cc(O)cc(O)c12 [QUERCETIN]
Escherichia coli [4]
  inhibition: 80%
[5]
  IC50: 33 µM

## CC[C@H](C)[C@H](NC(=O)CN)C(=O)NCC(=O)N[C@@H](C)C(=O)N[C@H](C(=O)N[C@@H](CC(C)C)C(=O)N[C@@H](CCCCN)C(=O)N[C@H](C(=O)N[C@@H](CC(C)C)C(=O)N[C@H](C(=O)N[C@H](C(=O)NCC(=O)N[C@@H](CC(C)C)C(=O)N1CCC[C@H]1C(=O)N[C@@H](C)C(=O)N[C@@H](CC(C)C)C(=O)N[C@H](C(=O)N[C@@H](CO)C(=O)N[C@@H](Cc1c[nH]c2ccccc12)C(=O)N[C@H](C(=O)N[C@@H](CCCCN)C(=O)N[C@@H](CCCNC(=N)N)C(=O)N[C@@H](CCCCN)C(=O)N[C@@H](CCCNC(=N)N)C(=O)N[C@@H](CCC(N)=O)C(=O)N[C@@H](CCC(N)=O)C(N)=O)[C@@H](C)CC)[C@@H](C)CC)[C@@H](C)O)[C@@H](C)O)C(C)C)C(C)C
Escherichia coli [3]
  inhibition: 78%

## COc1nc2ccc(Br)cc2cc1[C@H](c1cc(F)ccc1F)[C@](O)(CCCCN(C)C)c1ccccc1
Staphylococcus aureus
  MIC: 1 µg/mL (≈ 1.76 µM)
Streptococcus pneumoniae
  MIC: 0.25 µg/mL (≈ 0.439 µM)

## CC1(C)CC(=O)C(=CNc2ccccc2O)C(=O)C1
Mus musculus
  inhibition: 25%
[12]
  inhibition: 15 to 30%
[13]
  selectivity ratio: 20
[10]
  MIC: 2 µg/mL (≈ 7.71 µM)
[14]
  IC50: 4 µM
[15]
  Ratio IC50: 11.6

## COc1ccc([C@@H]2CC(=O)c3c(O)cc(O[C@@H]4O[C@H](CO[C@@H]5O[C@@H](C)[C@H](O)[C@@H](O)[C@H]5O)[C@@H](O)[C@H](O)[C@H]4O)cc3O2)cc1O
Escherichia coli [7]
  inhibition: 40 to 60%

## O=c1cc(-c2ccc(O)c(O)c2)oc2cc(O)cc(O)c12
Escherichia coli [7]
  inhibition: 0 to 20%

## O=c1c(O)c(-c2ccc(O)cc2O)oc2cc(O)cc(O)c12 [MORIN]
Escherichia coli [7]
  inhibition: 100%
[8]
  IC50: 70 µM

## CCN(CC)Cc1cc(N(c2cc(C)nc3cc(Cl)ccc23)S(=O)(=O)c2ccc(Cl)cc2Cl)ccc1O
ATP synthase
  IC50: 0.36 to 1.83 µM
[2]
  MIC: 3.12 µg/mL (≈ 5.39 µM)

## O=c1c(-c2ccc(O)cc2)coc2cc(O)ccc12
Escherichia coli [7]
  inhibition: 0 to 20%

## OC(COC(c1ccccc1)c1cccc2ccccc12)CN1CCN(c2ccccc2)CC1 (stereo not given)
[9]
  inhibition: 91%

## C[C@H]1COc2c(N3CCN(C)CC3)c(F)cc3c(=O)c(C(=O)O)cn1c23.C[C@H]1COc2c(N3CCN(C)CC3)c(F)cc3c(=O)c(C(=O)O)cn1c23.O [LEVOFLOXACIN]
Staphylococcus aureus
  MIC: 0.25 µg/mL

## CCN(CC)Cc1cc(N(c2cc(C)nc3cc(Cl)ccc23)S(=O)(=O)c2cc(C)cc(C)c2)ccc1O
ATP synthase
  IC50: 0.36 to 1.83 µM
[2]
  MIC: 6.25 µg/mL (≈ 11.6 µM)

## COc1cccc(N2CCN(CC(O)COC(c3ccccc3)c3cccc4ccccc34)CC2)c1 (stereo not given)
[9]
  inhibition: 99%

## COc1ccc(CC[C@@](O)(CCN(C)C)[C@@H](c2ccccc2)c2cc3cc(Br)ccc3nc2OC)cc1
Streptococcus pneumoniae
  MIC: 0.25 µg/mL (≈ 0.444 µM)

## O=C(CNC1CCCCC1)N(c1ccccc1)c1ccccc1
[10]
  IC50: 14 µM
[11]
  selectivity ratio: 21.1

## COc1nc2ccc(Br)cc2cc1[C@@H](c1ccccc1)[C@@](O)(CCN(C)C)c1cccc2ccccc12 [BEDAQUILINE]
[13]
  selectivity ratio: > 20000
[10]
  MIC: 3.6 µg/mL (≈ 6.48 µM)
[14]
  IC50: 6.47 µM

## COc1cc(C2Oc3cc([C@H]4Oc5cc(O)cc(O)c5C(=O)[C@@H]4O)ccc3OC2CO)ccc1O (stereo not given in full) [SILIBININ]
Escherichia coli [7]
  inhibition: 100%
[8]
  IC50: 340 µM

## CCN(CC)Cc1cc(N(c2cc(C)nc3cc(Cl)ccc23)S(=O)(=O)c2ccc([N+](=O)[O-])cc2)ccc1O
ATP synthase
  IC50: 0.36 to 1.83 µM
[2]
  MIC: 6.25 µg/mL (≈ 11.3 µM)

## CCN(CC)Cc1cc(N(c2cc(C)nc3cc(Cl)ccc23)S(=O)(=O)c2ccc(Cl)cc2)ccc1O
ATP synthase
  IC50: 0.36 to 1.83 µM
[2]
  MIC: 6.25 µg/mL (≈ 11.5 µM)

## C[C@@H]1O[C@@H](OC[C@H]2O[C@@H](Oc3c(-c4ccc(O)c(O)c4)oc4cc(O)cc(O)c4c3=O)[C@H](O)[C@@H](O)[C@@H]2O)[C@H](O)[C@H](O)[C@H]1O
Escherichia coli [7]
  inhibition: 40 to 60%

## CC(N)C12CC3CC(CC(C3)C1)C2 (stereo not given) [RIMANTADINE]
Escherichia coli [7]
  inhibition: 100%
[8]
  IC50: 2000 µM
